Where a SMILES comes first, the peptide text is derived from it. Bridges are numbered along the chain shown (N, C = ends). [ ]: non-standard residue; d: D form. 2Nal = N[C@@H](Cc1ccc2ccccc2c1)C(=O)O; Cit = NC(=O)NCCC[C@H](N)C(=O)O
tested on: HIV-1 (IIIB) strain; assay: Anti-HIV activity: inhibition of MT-4 cell death by HIV infection (MTT method); format: cell-based; conditions: MT-4 CD4+ T cells infected by HIV-1 (IIIB), 37° C., 5 days, MTT; average of at least three measurements; read-out: EC50 (concentration where MT-4 cell death by HIV infection is inhibited by 50%)
Method: HIV-1 (IIIB) strain obtained from MOLT/HIV-1 (IIIB) cell previously infected by HIV-1 was used. The polypeptide of the present invention was added to MT-4 CD4^+ T cells infected by HIV in various kinds of concentrations, and a number of living cells after culturing at 37° C. for 5 days was determined by using a 3′-(4,5-dimethylthiazol-2-yl)-2,5-diphenyltetrazolinium bromide (MTT) method. Anti-HIV activity is shown by a concentration (EC50 value), where MT-4 cell death by HIV infection is inhibited by 50%. Cytotoxicity of the peptide according to the present invention was shown by a 50% survival concentration (Test I: CC50 value) by culturing virus-uninfected MT-4 cells with the polypeptide according to the present invention in various concentrations, and determining a number of living cells by the MTT method. Moreover, a number of living cells of human peripheral blood mononuclear cells (monocyte) (PBMC) was determined by trypan blue dyeing method, and shown by a 50% survival concentration (Test II: CC50 value). Respective ratios of the CC50 value and the EC50 value were shown as a selective index (SI). Obtained values were summarized in Table 3 using the conventionally known polypeptides T134 and T140, and an anti-HIV compound: 3′-azido-2′,3′-dideoxythymidine (AZT) used as a medicine as a control anti-HIV agent.

First: C[C@@H]1NC(=O)[C@H](CCCNC(=N)N)NC(=O)[C@H](Cc2ccc(O)cc2)NC(=O)[C@@H](NC(=O)[C@H](Cc2ccc3ccccc3c2)NC(=O)[C@H](CCCNC(=N)N)NC(=O)[C@@H](N)CCCNC(=N)N)CSSC[C@@H](C(=O)N[C@@H](CCCNC(=N)N)C(=O)O)NC(=O)[C@H](CCCNC(N)=O)NC(=O)[C@H](CCCNC(=N)N)NC(=O)[C@H](Cc2ccc(O)cc2)NC(=O)[C@@H]2CCCN2C(=O)[C@@H](CCCCN)NC1=O [TA14006, H-Arg-Arg-Nal-Cys-Tyr-Arg-Ala-DLys-Pro-Tyr-Arg-Cit-Cys-Arg-OH] (H-RR[2Nal]CYRA[dK]PYR[Cit]CR-OH; disulfide 4-13)
Second: C[C@H]1NC(=O)[C@H](CCCCN)NC(=O)[C@H](CCCNC(=N)N)NC(=O)[C@H](Cc2ccc(O)cc2)NC(=O)[C@@H](NC(=O)[C@H](Cc2ccc3ccccc3c2)NC(=O)[C@H](CCCNC(=N)N)NC(=O)[C@@H](N)CCCNC(=N)N)CSSC[C@@H](C(=O)N[C@@H](CCCNC(=N)N)C(=O)O)NC(=O)[C@H](CCCNC(N)=O)NC(=O)[C@H](CCCNC(=N)N)NC(=O)[C@H](Cc2ccc(O)cc2)NC(=O)[C@@H]2CCCN2C1=O [TA14007, H-Arg-Arg-Nal-Cys-Tyr-Arg-Lys-DAla-Pro-Tyr-Arg-Cit-Cys-Arg-OH] (H-RR[2Nal]CYRK[dA]PYR[Cit]CR-OH; disulfide 4-13)
The EC50 of the first is 2.9-fold higher: 47 nM for the first, 16 nM for the second.

Compared with `N=C(N)NCCC[C@H](NC(=O)[C@@H]1CSSC[C@H](NC(=O)[C@H](Cc2ccc3ccccc3c2)NC(=O)[C@H](CCCNC(=N)N)NC(=O)[C@@H](N)CCCNC(=N)N)C(=O)N[C@@H](Cc2ccc(O)cc2)C(=O)N[C@@H](CCCNC(=N)N)C(=O)N[C@@H](CCCCN)C(=O)N[C@H](CCCCN)C(=O)N2CCC[C@H]2C(=O)N[C@@H](Cc2ccc(O)cc2)C(=O)N[C@@H](CCCNC(=N)N)C(=O)N[C@@H](CCCNC(N)=O)C(=O)N1)C(=O)O` [Compound T140, H-Arg-Arg-Nal-Cys-Tyr-Arg-Lys-DLys-Pro-Tyr-Arg-Cit-Cys-Arg-OH, reference compound] (H-RR[2Nal]CYRK[dK]PYR[Cit]CR-OH; disulfide 4-13), `N=C(N)NCCC[C@H](NC(=O)[C@@H]1CSSC[C@H](NC(=O)[C@H](Cc2ccc3ccccc3c2)NC(=O)[C@H](CCCNC(=N)N)NC(=O)[C@@H](N)CCCNC(=N)N)C(=O)N[C@@H](Cc2ccc(O)cc2)C(=O)N[C@@H](CCCNC(=N)N)C(=O)N[C@@H](CCCCN)C(=O)N[C@H](CCCCN)C(=O)N2CCC[C@H]2C(=O)N[C@@H](Cc2ccc(O)cc2)C(=O)N[C@@H](CCCNC(N)=O)C(=O)N[C@@H](CCCNC(N)=O)C(=O)N1)C(=O)O` [TC14006, H-Arg-Arg-Nal-Cys-Tyr-Arg-Lys-DLys-Pro-Tyr-Cit-Cit-Cys-Arg-OH] (H-RR[2Nal]CYRK[dK]PY[Cit][Cit]CR-OH; disulfide 4-13) is 4.5-fold higher in EC50: 3.3 nM for the first, 15 nM for the second.

Going from `C[C@@H]1NC(=O)[C@H](Cc2ccc(O)cc2)NC(=O)[C@@H](NC(=O)[C@H](Cc2ccc3ccccc3c2)NC(=O)[C@H](CCCNC(=N)N)NC(=O)[C@@H](N)CCCNC(=N)N)CSSC[C@@H](C(=O)N[C@@H](CCCNC(=N)N)C(=O)O)NC(=O)[C@H](CCCNC(N)=O)NC(=O)[C@H](CCCNC(=N)N)NC(=O)[C@H](Cc2ccc(O)cc2)NC(=O)[C@@H]2CCCN2C(=O)[C@@H](CCCCN)NC(=O)[C@H](CCCCN)NC1=O` [TA14005, H-Arg-Arg-Nal-Cys-Tyr-Ala-Lys-DLys-Pro-Tyr-Arg-Cit-Cys-Arg-OH] (H-RR[2Nal]CYAK[dK]PYR[Cit]CR-OH; disulfide 4-13) to `N=C(N)NCCC[C@H](NC(=O)[C@@H]1CSSC[C@H](NC(=O)[C@H](Cc2ccc3ccccc3c2)NC(=O)[C@H](CCCNC(=N)N)NC(=O)[C@@H](N)CCCNC(=N)N)C(=O)N[C@@H](Cc2ccc(O)cc2)C(=O)N[C@@H](CCCNC(N)=O)C(=O)N[C@@H](CCCCN)C(=O)N[C@H](CCCCN)C(=O)N2CCC[C@H]2C(=O)N[C@@H](Cc2ccc(O)cc2)C(=O)N[C@@H](CCCNC(=N)N)C(=O)N[C@@H](CCCNC(N)=O)C(=O)N1)C(=O)O` [TC14003, H-Arg-Arg-Nal-Cys-Tyr-Cit-Lys-DLys-Pro-Tyr-Arg-Cit-Cys-Arg-OH] (H-RR[2Nal]CY[Cit]K[dK]PYR[Cit]CR-OH; disulfide 4-13), the EC50 falls from 9.3 nM to 2.8 nM (3.3-fold).

Compared with `N=C(N)NCCC[C@H](NC(=O)[C@@H]1CSSC[C@H](NC(=O)[C@H](Cc2c[nH]c3ccccc23)NC(=O)[C@H](CCCNC(=N)N)NC(=O)[C@@H](N)CCCNC(=N)N)C(=O)N[C@@H](Cc2ccc(O)cc2)C(=O)N[C@@H](CCCNC(=N)N)C(=O)N[C@@H](CCCCN)C(=O)N[C@H](CCCCN)C(=O)N2CCC[C@H]2C(=O)N[C@@H](Cc2ccc(O)cc2)C(=O)N[C@@H](CCCNC(=N)N)C(=O)N[C@@H](CCCNC(N)=O)C(=O)N1)C(=O)O` [Compound T134, H-Arg-Arg-Trp-Cys-Tyr-Arg-Lys-DLys-Pro-Tyr-Arg-Cit-Cys-Arg-OH, reference compound] (H-RRWCYRK[dK]PYR[Cit]CR-OH; disulfide 4-13), `N=C(N)NCCC[C@H](NC(=O)[C@@H]1CSSC[C@H](NC(=O)[C@H](Cc2ccc3ccccc3c2)NC(=O)[C@H](CCCNC(=N)N)NC(=O)[C@@H](N)CCCNC(=N)N)C(=O)N[C@@H](Cc2ccc(O)cc2)C(=O)N[C@@H](CCCNC(=N)N)C(=O)N[C@@H](CCCNC(N)=O)C(=O)N[C@H](CCCCN)C(=O)N2CCC[C@H]2C(=O)N[C@@H](Cc2ccc(O)cc2)C(=O)N[C@@H](CCCNC(=N)N)C(=O)N[C@@H](CCCNC(N)=O)C(=O)N1)C(=O)O` [TC14004, H-Arg-Arg-Nal-Cys-Tyr-Arg-Cit-DLys-Pro-Tyr-Arg-Cit-Cys-Arg-OH] (H-RR[2Nal]CYR[Cit][dK]PYR[Cit]CR-OH; disulfide 4-13) is 1.9-fold higher in EC50: 8.3 nM for the first, 16 nM for the second.

`C[C@@H]1NC(=O)[C@@H](CCCCN)NC(=O)[C@H](CCCCN)NC(=O)[C@H](CCCNC(=N)N)NC(=O)[C@H](Cc2ccc(O)cc2)NC(=O)[C@@H](NC(=O)[C@H](Cc2ccc3ccccc3c2)NC(=O)[C@H](CCCNC(=N)N)NC(=O)[C@@H](N)CCCNC(=N)N)CSSC[C@@H](C(=O)N[C@@H](CCCNC(=N)N)C(=O)O)NC(=O)[C@H](CCCNC(N)=O)NC(=O)[C@H](CCCNC(=N)N)NC(=O)[C@H](Cc2ccc(O)cc2)NC1=O` [TA14008, H-Arg-Arg-Nal-Cys-Tyr-Arg-Lys-DLys-Ala-Tyr-Arg-Cit-Cys-Arg-OH] (H-RR[2Nal]CYRK[dK]AYR[Cit]CR-OH; disulfide 4-13) and `C[C@@H]1NC(=O)[C@@H]2CCCN2C(=O)[C@@H](CCCCN)NC(=O)[C@H](CCCCN)NC(=O)[C@H](CCCNC(=N)N)NC(=O)[C@H](Cc2ccc(O)cc2)NC(=O)[C@@H](NC(=O)[C@H](Cc2ccc3ccccc3c2)NC(=O)[C@H](CCCNC(=N)N)NC(=O)[C@@H](N)CCCNC(=N)N)CSSC[C@@H](C(=O)N[C@@H](CCCNC(=N)N)C(=O)O)NC(=O)[C@H](CCCNC(N)=O)NC(=O)[C@H](CCCNC(=N)N)NC1=O` [TA14009, H-Arg-Arg-Nal-Cys-Tyr-Arg-Lys-DLys-Pro-Ala-Arg-Cit-Cys-Arg-OH] (H-RR[2Nal]CYRK[dK]PAR[Cit]CR-OH; disulfide 4-13) are the same in EC50: 17 nM for the first, 17 nM for the second.
